In brackets after ≈: the same amount, converted by molar mass.

What all share (type): functional
One experiment deals with Haemophilus influenzae. Nature of the experiment: Antimicrobial activity against Haemophilus influenzae by broth microdilution method.
For experiment [1], the system named is Enterococcus faecium. In words: Antimicrobial activity against vancomycin-susceptible Enterococcus faecium by broth microdilution method. (In general: Broth dilution looks for growth in wells or tubes with falling amounts of substance.)
The subject of experiment [2] is Enterococcus faecalis. In words: Antimicrobial activity against vancomycin-susceptible Enterococcus faecalis by broth microdilution method.
Experiment [3] relates to Staphylococcus aureus. In words: Antimicrobial activity against methicillin-susceptible Staphylococcus aureus by broth microdilution method.
Experiment [4] concerns Streptococcus pneumoniae. In words: Antimicrobial activity against penicillin-resistant Streptococcus pneumoniae by broth microdilution method.
Experiment [5] relates to Enterococcus faecalis. Nature of the experiment: Antimicrobial activity against vancomycin-resistant Enterococcus faecalis by broth microdilution method.
The test system of experiment [6] is Staphylococcus epidermidis. Nature of the experiment: Antimicrobial activity against methicillin-resistant Staphylococcus epidermidis by broth microdilution method.
Another experiment concerns Streptococcus agalactiae. Nature of the experiment: Antimicrobial activity against Streptococcus agalactiae by broth microdilution method.
For experiment [7], the system named is Streptococcus pneumoniae. In words: Antimicrobial activity against penicillin-susceptible Streptococcus pneumoniae by broth microdilution method.
Experiment [8] has as its system Enterococcus faecium. In words: Antimicrobial activity against vancomycin-resistant Enterococcus faecium by broth microdilution method.
The subject of experiment [9] is Staphylococcus epidermidis. In words: Antimicrobial activity against methicillin-susceptible Staphylococcus epidermidis by broth microdilution method.
In experiment [10] the test system is Streptococcus pneumoniae. In words: Antimicrobial activity against penicillin-intermediate Streptococcus pneumoniae by broth microdilution method.
The subject of experiment [11] is Staphylococcus aureus. In words: Antimicrobial activity against methicillin-resistant Staphylococcus aureus by broth microdilution method.
The test system of a further experiment is Clostridioides difficile. In words: Antimicrobial activity against Clostridium difficile by broth microdilution method.
The test system of experiment [12] is Klebsiella pneumoniae. In words: Antimicrobial activity against ESBL-production Klebsiella pneumoniae by broth microdilution method.
Experiment [13] has as its system Acinetobacter baumannii. In words: Antimicrobial activity against Acinetobacter baumannii by broth microdilution method.
The test system of a further experiment is Serratia marcescens. Nature of the experiment: Antimicrobial activity against Serratia marcescens by broth microdilution method.
The subject of another experiment is Proteus mirabilis. In words: Antimicrobial activity against Proteus mirabilis by broth microdilution method.
For experiment [14], the system named is Klebsiella pneumoniae. Nature of the experiment: Antimicrobial activity against Klebsiella pneumoniae by broth microdilution method.
The subject of experiment [15] is Acinetobacter baumannii. Nature of the experiment: Antimicrobial activity against multiple dug-resistant Acinetobacter baumannii by broth microdilution method.
Another experiment deals with Escherichia coli. Nature of the experiment: Antimicrobial activity against Escherichia coli by broth microdilution method.
In a further experiment the test system is Burkholderia cepacia. In words: Antimicrobial activity against Burkholderia cepacia by broth microdilution method.
The next experiment concerns Pseudomonas aeruginosa. In words: Antimicrobial activity against Pseudomonas aeruginosa by broth microdilution method.

Take `C[C@H]1COc2c(N3CCN(C)CC3)c(F)cc3c(=O)c(C(=O)O)cn1c23.C[C@H]1COc2c(N3CCN(C)CC3)c(F)cc3c(=O)c(C(=O)O)cn1c23.O` [LEVOFLOXACIN]: in the experiment on Haemophilus influenzae, the MIC was found to be 0.08 µg/mL, the MIC50 worked out at 0.015 µg/mL and the MIC90 is 0.06 µg/mL.
With `CC(=O)NC[C@H]1CN(c2ccc(N3CCOCC3)c(F)c2)C(=O)O1` [LINEZOLID], the figures for the MIC (against Enterococcus faecium [1]; in experiment [6]; with Streptococcus agalactiae) were 2 µg/mL (≈ 5.93 µM), 1 µg/mL (≈ 2.96 µM) and 1 µg/mL (≈ 2.96 µM), respectively. In addition, the MIC50 with Enterococcus faecium [1] turned out to be 2 µg/mL (≈ 5.93 µM); in the experiment with Enterococcus faecalis [2], 2 µg/mL (≈ 5.93 µM); in the experiment on Staphylococcus aureus [3], 2 µg/mL (≈ 5.93 µM); in the experiment with Streptococcus pneumoniae [4], 1 µg/mL (≈ 2.96 µM); against Enterococcus faecalis [5] it was 1 µg/mL (≈ 2.96 µM); in experiment [6] it was 1 µg/mL (≈ 2.96 µM). Also, the MIC50 came to 1 µg/mL (≈ 2.96 µM) in the experiment on Streptococcus agalactiae; 1 µg/mL (≈ 2.96 µM) with Streptococcus pneumoniae [7]; 2 µg/mL (≈ 5.93 µM) against Enterococcus faecium [8]; 1 µg/mL (≈ 2.96 µM) in experiment [9]; 1 µg/mL (≈ 2.96 µM) with Streptococcus pneumoniae [10]; 2 µg/mL (≈ 5.93 µM) against Staphylococcus aureus [11]. Further, the MIC90 was 4 µg/mL (≈ 11.9 µM) against Enterococcus faecium [1]; 2 µg/mL (≈ 5.93 µM) with Enterococcus faecalis [2]; 4 µg/mL (≈ 11.9 µM) in the experiment on Staphylococcus aureus [3]; 1 µg/mL (≈ 2.96 µM) with Streptococcus pneumoniae [4]; 1 µg/mL (≈ 2.96 µM) in the experiment with Enterococcus faecalis [5]; 2 µg/mL (≈ 5.93 µM) in experiment [6]. The MIC90 against Streptococcus agalactiae worked out at 2 µg/mL (≈ 5.93 µM); in the experiment with Streptococcus pneumoniae [7], 2 µg/mL (≈ 5.93 µM); against Enterococcus faecium [8], 2 µg/mL (≈ 5.93 µM); in experiment [9], 2 µg/mL (≈ 5.93 µM); with Streptococcus pneumoniae [10] it was 1 µg/mL (≈ 2.96 µM); against Staphylococcus aureus [11], 4 µg/mL (≈ 11.9 µM).
In the experiment with Clostridioides difficile, `Cc1ncc([N+](=O)[O-])n1CCO` [METRONIDAZOLE] showed an MIC50 of 0.12 µg/mL (≈ 0.701 µM) and an MIC90 of 0.5 µg/mL (≈ 2.92 µM).
`CN(C)c1cc(NC(=O)CNC(C)(C)C)c(O)c2c1C[C@H]1C[C@H]3[C@H](N(C)C)C(O)=C(C(N)=O)C(=O)[C@@]3(O)C(O)=C1C2=O` [TIGECYCLINE]: the MIC50 stood at 0.03 µg/mL (≈ 0.0512 µM) with Klebsiella pneumoniae [12]; 0.25 µg/mL (≈ 0.427 µM) in the experiment with Acinetobacter baumannii [13]; 0.5 µg/mL (≈ 0.854 µM) in the experiment on Serratia marcescens; 0.5 µg/mL (≈ 0.854 µM) against Proteus mirabilis; 1 µg/mL (≈ 1.71 µM) in the experiment on Klebsiella pneumoniae [14]; 0.5 µg/mL (≈ 0.854 µM) in the experiment with Acinetobacter baumannii [15]. Further, the results for the MIC50 in the experiment with Escherichia coli, with Burkholderia cepacia and in the experiment on Pseudomonas aeruginosa were 0.12 µg/mL (≈ 0.205 µM), above 8 µg/mL and 0.5 µg/mL (≈ 0.854 µM), respectively. Moreover, the MIC90 in the experiment on Klebsiella pneumoniae [12] was above 2 µg/mL; against Acinetobacter baumannii [13] it was above 8 µg/mL; against Serratia marcescens, 2 µg/mL (≈ 3.41 µM); against Proteus mirabilis it was above 32 µg/mL; in the experiment with Klebsiella pneumoniae [14], above 8 µg/mL; in the experiment on Acinetobacter baumannii [15], 2 µg/mL (≈ 3.41 µM). Moreover, the MIC90 is 0.25 µg/mL (≈ 0.427 µM) against Escherichia coli, above 8 µg/mL against Burkholderia cepacia and above 32 µg/mL against Pseudomonas aeruginosa. The same compound gave an MIC in the experiment on Escherichia coli of 0.12 µg/mL (≈ 0.205 µM).
Consider `CN[C@H](CC(C)C)C(=O)N[C@H]1C(=O)N[C@@H](CC(N)=O)C(=O)N[C@H]2C(=O)N[C@H]3C(=O)N[C@H](C(=O)N[C@H](C(=O)O)c4cc(O)cc(O)c4-c4cc3ccc4O)[C@H](O)c3ccc(c(Cl)c3)Oc3cc2cc(c3O[C@@H]2O[C@H](CO)[C@@H](O)[C@H](O)[C@H]2O[C@H]2C[C@](C)(N)[C@H](O)[C@H](C)O2)Oc2ccc(cc2Cl)[C@H]1O` [VANCOMYCIN], for which the MIC50 in the experiment on Enterococcus faecium [1] was 0.5 µg/mL (≈ 0.345 µM); in the experiment on Enterococcus faecalis [2], 1 µg/mL (≈ 0.69 µM); against Staphylococcus aureus [3], 0.5 µg/mL (≈ 0.345 µM); in the experiment with Streptococcus pneumoniae [4] it was 0.25 µg/mL (≈ 0.173 µM); against Enterococcus faecalis [5], above 64 µg/mL; in experiment [6], 2 µg/mL (≈ 1.38 µM). Moreover, the MIC50 was 1 µg/mL (≈ 0.69 µM) against Streptococcus agalactiae; 0.25 µg/mL (≈ 0.173 µM) in the experiment with Streptococcus pneumoniae [7]; above 64 µg/mL against Enterococcus faecium [8]; 0.25 µg/mL (≈ 0.173 µM) against Streptococcus pneumoniae [10]; 0.5 µg/mL (≈ 0.345 µM) with Staphylococcus aureus [11]. Besides, the MIC90 in the experiment with Enterococcus faecium [1] was 1 µg/mL (≈ 0.69 µM); against Enterococcus faecalis [2], 2 µg/mL (≈ 1.38 µM); against Staphylococcus aureus [3], 1 µg/mL (≈ 0.69 µM); against Streptococcus pneumoniae [4] it was 0.25 µg/mL (≈ 0.173 µM); in the experiment with Enterococcus faecalis [5], above 64 µg/mL; in experiment [6], 2 µg/mL (≈ 1.38 µM). For the same compound, the MIC90 against Streptococcus agalactiae was 1 µg/mL (≈ 0.69 µM); in the experiment on Streptococcus pneumoniae [7] it was 0.25 µg/mL (≈ 0.173 µM); against Enterococcus faecium [8], above 64 µg/mL; in [9], 2 µg/mL (≈ 1.38 µM); against Streptococcus pneumoniae [10], 0.25 µg/mL (≈ 0.173 µM); against Staphylococcus aureus [11] it was 1 µg/mL (≈ 0.69 µM). Also, the MIC is 0.25 µg/mL (≈ 0.173 µM) against Streptococcus pneumoniae [4], above 64 µg/mL in the experiment on Enterococcus faecalis [5] and 0.25 µg/mL (≈ 0.173 µM) in the experiment with Streptococcus pneumoniae [10].
Turning to GENTAMICIN, the MIC50 against Klebsiella pneumoniae [12] came to 0.25 µg/mL; against Acinetobacter baumannii [13], 0.06 µg/mL; in the experiment on Serratia marcescens, 4 µg/mL; in the experiment with Proteus mirabilis it was 1 µg/mL; in the experiment with Klebsiella pneumoniae [14], 0.5 µg/mL; with Acinetobacter baumannii [15] it was 0.5 µg/mL. The values for the MIC50 against Escherichia coli, against Burkholderia cepacia and against Pseudomonas aeruginosa were 1 µg/mL, 0.5 µg/mL and 2 µg/mL, respectively. The MIC90 in the experiment on Klebsiella pneumoniae [12] is 1 µg/mL; in the experiment on Acinetobacter baumannii [13], above 8 µg/mL; with Serratia marcescens, 4 µg/mL; against Proteus mirabilis, 8 µg/mL; with Klebsiella pneumoniae [14], 2 µg/mL; against Acinetobacter baumannii [15], 4 µg/mL. The MIC90 was 1 µg/mL against Escherichia coli, above 8 µg/mL in the experiment with Burkholderia cepacia and above 32 µg/mL in the experiment with Pseudomonas aeruginosa.

The record behind these values is ChEMBL document CHEMBL1671722, “Comparative in vitro activity profiles of novel bis-indole antibacterials against gram-positive and gram-negative clinical isolates” (Antimicrob Agents Chemother, 2010).
